Measured values: patent US20110306636A1, “OXAZOLE PYRIDINE DERIVATIVES USEFUL AS S1P1 RECEPTOR AGONISTS” (Merck Serono SA, priority 2009, published 2011)
Structures can show the parent of a compound that is named as a salt. Where two headings read alike, the source gives them in different places.

Experiments:
S1P1 [1] = biological target: T1, S1P1 (Homo sapiens, UniProt P21453); assay: 35S-GTPγS binding assay, S1P1 membranes; assay type: biochemical; settings: membranes from CHO cells expressing S1P1; read-out: S1P1/GTPG EC50
T1 sequence (P21453 whole entry, species assumed): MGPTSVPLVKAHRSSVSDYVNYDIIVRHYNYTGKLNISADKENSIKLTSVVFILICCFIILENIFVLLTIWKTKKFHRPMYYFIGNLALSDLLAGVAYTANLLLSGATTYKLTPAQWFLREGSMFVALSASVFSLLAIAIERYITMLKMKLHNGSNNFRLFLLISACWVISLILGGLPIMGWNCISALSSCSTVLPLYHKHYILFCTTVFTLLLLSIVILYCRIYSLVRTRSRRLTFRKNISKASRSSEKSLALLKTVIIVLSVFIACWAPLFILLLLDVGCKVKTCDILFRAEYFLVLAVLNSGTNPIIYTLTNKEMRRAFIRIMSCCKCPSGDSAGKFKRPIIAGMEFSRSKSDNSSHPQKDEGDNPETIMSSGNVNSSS
Procedure: (§1) Membranes Preparation: Membranes were prepared from CHO cells expressing S1P1 or S1P3 for use in ligand and 35S-GTPγS binding studies. Cells were suspended in 50 mM TRIS, pH 7.4, 2 mM EDTA, 250 mM Sucrose (buffer A) and 1× Complete protease inhibitor cocktail (Roche), and disrupted at 4° C. by N2 decompression using a cell disruption bomb (Parr Instrument). Following centrifugation at 1000 RPM for 10 min at 4° C., the supernatant was diluted (2×) in buffer A and centrifuged again at 19000 RPM for 75 min at 4° C. The pellet was then suspended in 10 mM HEPES, pH 7.4, 1 mM EDTA, 250 mM Sucrose (Buffer B), and 1× Complete EDTA-free protease inhibitor cocktail and homogenized using a potter. Membranes were flash frozen in liquid N2 and stored at −80° C.
(§2) Measurements of 35S-GTPγS Binding: Membranes (1 to 10 μg protein) prepared as described above, were incubated in 96-well Scintiplates (PerkinElmer) with test compounds diluted in DMSO, in 140 μl of 20 mM HEPES, pH 7.4, 10 mM MgCl2, 2 μg/well Saponin, 0.2% fatty acid free BSA (Assay buffer), 125 mM NaCl and 1.5 μM GDP. The assay was initiated with the addition of 60 μl of 1.5 nM [35S]-GTPγS (1100 Ci/mmol; GE Healthcare) in assay buffer. After 60 min incubation at 30° C. on a shaker, plates were centrifuged for 10 min at 2000 RPM. Supernatant was discarded and membrane bound radioactivity was measured on a PerkinElmer 1450 MicroBeta counter. Triplicate samples were averaged and expressed as % response relative to S1P activation in absence of compound (n=2).
The “potency” or the “activity” of the compounds is determined by the EC50 values as evaluated in the above described 35S-GTPγS binding assay.

S1P3 [2] = biological target: T2, S1P3 (Homo sapiens, UniProt Q99500); assay: 35S-GTPγS binding assay, S1P3 membranes; assay type: biochemical; settings: membranes from CHO cells expressing S1P3; read-out: S1P3/GTPG EC50
T2 sequence (Q99500 whole entry, species assumed): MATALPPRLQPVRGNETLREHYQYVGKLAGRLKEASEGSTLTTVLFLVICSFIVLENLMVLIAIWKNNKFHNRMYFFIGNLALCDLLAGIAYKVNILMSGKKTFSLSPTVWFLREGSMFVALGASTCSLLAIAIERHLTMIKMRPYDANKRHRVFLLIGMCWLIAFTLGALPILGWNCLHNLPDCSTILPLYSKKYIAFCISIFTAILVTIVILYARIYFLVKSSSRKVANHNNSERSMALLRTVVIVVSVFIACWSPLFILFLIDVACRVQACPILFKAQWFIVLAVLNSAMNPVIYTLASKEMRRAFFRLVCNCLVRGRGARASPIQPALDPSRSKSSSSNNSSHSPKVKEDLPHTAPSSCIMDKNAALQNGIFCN
Procedure: as §1, §2

S1P1 [3] = biological target: T1, S1P1; assay: Receptor binding assay, [33P]sphingosine 1-phosphate competition, S1P1
In short: (§3)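 SPA competition binding on CHO-cell membranes with 30 pM (S1P1) or 15 pM (S1P3) [33P]S1P in 50 mM HEPES pH 7.5, 5 mM MgCl2, 100 mM NaCl, 0.4% fatty acid-free BSA, 60 min at RT. Percent inhibition normalised to total binding and to non-specific binding (1000-fold unlabelled S1P), triplicates averaged.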

S1P3 [4] = biological target: T2, S1P3; assay: Receptor binding assay, [33P]sphingosine 1-phosphate competition, S1P3
In short: as §3

[5] = biological target: T3, human S1P1 Receptor fused to the green fluorescent protein (EGFP) (Homo sapiens, UniProt P21453); assay: Internalization of S1P1 in S1P1-U2OS cells by cell imaging analysis; assay type: cell-based; settings: 1 hour incubation, 384-well
T3 construct: host or cells: U2OS (human bone osteosarcoma epithelial cells), CMV promoter, geneticin selection
T3 sequence (P21453 with tags, fused parts or gaps): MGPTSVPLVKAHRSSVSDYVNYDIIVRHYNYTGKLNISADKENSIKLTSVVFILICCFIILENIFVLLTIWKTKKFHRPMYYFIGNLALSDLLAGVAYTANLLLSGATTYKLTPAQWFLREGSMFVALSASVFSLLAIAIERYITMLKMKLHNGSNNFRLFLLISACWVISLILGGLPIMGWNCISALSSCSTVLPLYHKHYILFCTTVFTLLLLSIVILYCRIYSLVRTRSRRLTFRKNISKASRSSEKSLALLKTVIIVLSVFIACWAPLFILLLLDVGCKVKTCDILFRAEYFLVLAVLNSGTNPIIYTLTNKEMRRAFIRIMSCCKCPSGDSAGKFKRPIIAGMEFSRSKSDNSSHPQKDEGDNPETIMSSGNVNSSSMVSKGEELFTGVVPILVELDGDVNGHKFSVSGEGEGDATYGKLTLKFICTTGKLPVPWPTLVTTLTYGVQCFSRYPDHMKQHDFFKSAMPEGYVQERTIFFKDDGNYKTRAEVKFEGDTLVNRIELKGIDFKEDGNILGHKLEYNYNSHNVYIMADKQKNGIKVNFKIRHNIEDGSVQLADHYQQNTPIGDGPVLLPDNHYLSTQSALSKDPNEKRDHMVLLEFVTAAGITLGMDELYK
In short: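 Human U2OS osteosarcoma cells stably expressed human S1P1-EGFP. After 2 h serum starvation in 0.1% fatty-acid-free BSA medium, cells were treated with compounds for 1 h at 37 °C. Cells were then fixed and Hoechst-stained, and internalization was imaged as spots (receptor) per nucleus.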

[6] = 96 well-plate, read-out: S1P1 binding IC50 (M) (96 well-plate)
[7] = 384 well-plate, read-out: S1P1 binding IC50 (M) (384 well-plate)
[8] = 96 well-plate, read-out: S1P3 binding IC50 (M) (96 well-plate)
[9] = 384 well-plate, read-out: S1P3 binding IC50 (M) (384 well-plate)

SMILES	EC50 (S1P1 [1])	EC50 (S1P3 [2])	IC50 (S1P1 [3]; [6])	IC50 (S1P1 [3]; [7])	IC50 (S1P3 [4]; [8])	IC50 (S1P3 [4]; [9])	EC50 [5]	melting point
COCc1cc(-c2nc(-c3ccc(NCCC(=O)O)nc3)no2)ccc1-c1ccccc1C [Example 2, N-(5-{5-[2-(methoxymethyl)-2′-methylbiphenyl-4-yl]-1,2,4-oxadiazol-3-yl}pyridin-2-yl)-beta-alanine, hydrochloride salt]	21.1 nM	1890 nM	4.83e-09 M	–	–	–	–	–
COCc1cc(-c2nc(-c3ccc(N)nc3)no2)ccc1-c1ccccc1C [Example 4, 5-{5-[2-(methoxymethyl)-2′-methylbiphenyl-4-yl]-1,2,4-oxadiazol-3-yl}pyridin-2-amine, hydrochloride salt]	4.11 nM	2690 nM	1.75e-09 M	3.2e-08 M	6.07e-06 M	7.85e-06 M	32 nM	–
COCc1cc(-c2nc(-c3ccnc(NCCC(=O)O)c3)no2)ccc1-c1ccccc1C [Example 7, N-(4-{5-[2-(methoxymethyl)-2′-methylbiphenyl-4-yl]-1,2,4-oxadiazol-3-yl}pyridin-2-yl)-beta-alanine, hydrochloride salt]	5.12 nM	118 nM	9.09e-09 M	–	–	–	–	–
COCc1cc(-c2nc(-c3ccc(N)nc3)no2)ccc1N1CCCCC1C (stereo not shown) [Example 9, 5-{5-[3-(methoxymethyl)-4-(2-methylpiperidin-1-yl)phenyl]-1,2,4-oxadiazol-3-yl}pyridin-2-amine]	1.77 nM	2620 nM	4.29e-09 M	–	–	–	–	–
COCc1cc(-c2nc(-c3ccnc(NCC(=O)O)c3)no2)ccc1-c1ccccc1C [Example 11, N-(4-{5-[2-(methoxymethyl)-2′-methylbiphenyl-4-yl]-1,2,4-oxadiazol-3-yl}pyridin-2-yl)glycine, hydrochloride salt]	22.2 nM	–	–	6.42e-08 M	–	2.97e-06 M	244 nM	–
COCc1cc(-c2nc(-c3cnc(N)c(Cl)c3)no2)ccc1-c1ccccc1C [Example 14, 3-chloro-5-{5-[2-(methoxymethyl)-2′-methylbiphenyl-4-yl]-1,2,4-oxadiazol-3-yl}pyridin-2-amine]	5.87 nM	1460 nM	1.89e-08 M	–	1.65e-05 M	–	44.9 nM	–
COCc1cc(-c2nc(-c3ccnc(N)c3)no2)ccc1-c1ccccc1C [Example 15, 4-{5-[2-(methoxymethyl)-2′-methylbiphenyl-4-yl]-1,2,4-oxadiazol-3-yl}pyridin-2-amine, hydrochloride salt]	3.52 nM	414 nM	1.04e-08 M	–	–	–	6 nM	–
COCc1cc(-c2nc(-c3cnc(N)nc3)no2)ccc1-c1ccccc1C [Example 17, 5-{5-[2-(methoxymethyl)-2′-methylbiphenyl-4-yl]-1,2,4-oxadiazol-3-yl}pyrimidin-2-amine]	152 nM	–	–	2.92e-08 M	–	–	152 nM	–
COCc1cc(-c2nc(-c3cnc(N)c(C)c3)no2)ccc1-c1ccccc1C [Example 18, 5-{5-[2-(methoxymethyl)-2′-methylbiphenyl-4-yl]-1,2,4-oxadiazol-3-yl}-3-methylpyridin-2-amine, hydrochloride salt]	4.87 nM	–	4.33e-09 M	1.52e-08 M	2.21e-05 M	–	49.4 nM	–
CC1CCCCN1c1ccc(-c2nc(-c3ccc(N)nc3)no2)cc1C(F)(F)F (stereo not shown) [Example 20, 5-{5-[4-(2-methylpiperidin-1-yl)-3-(trifluoromethyl)phenyl]-1,2,4-oxadiazol-3-yl}pyridin-2-amine]	14.7 nM	–	1.03e-08 M	–	–	–	–	–
COCc1cc(-c2nc(-c3ccc(O)nc3)no2)ccc1-c1ccccc1C [Example 21, 5-{5-[2-(methoxymethyl)-2′-methylbiphenyl-4-yl]-1,2,4-oxadiazol-3-yl}pyridin-2-ol]	3.97 nM	422 nM	4.76e-08 M	–	–	–	–	–
COCc1cc(-c2nc(-c3ccc(O)nc3)no2)ccc1N1CCCCC1C (stereo not shown) [Example 22, 5-{5-[3-(methoxymethyl)-4-(2-methylpiperidin-1-yl)phenyl]-1,2,4-oxadiazol-3-yl}pyridin-2-ol]	5.29 nM	153 nM	1.3e-09 M	–	–	–	–	–
CCC1CCCCN1c1ccc(-c2nc(-c3ccc(N)nc3)no2)cc1COC (stereo not shown) [Example 27, 5-{5-[4-(2-ethylpiperidin-1-yl)-3-(methoxymethyl)phenyl]-1,2,4-oxadiazol-3-yl}pyridin-2-amine]	13.4 nM	1660 nM	5.7e-09 M	–	–	–	–	–
COCc1cc(-c2nc(-c3ccc(NCCO)nc3)no2)ccc1-c1ccccc1C [Example 28, 2-[(5-{5-[2-(methoxymethyl)-2′-methylbiphenyl-4-yl]-1,2,4-oxadiazol-3-yl}pyridin-2-yl)amino]ethanol]	5.25 nM	–	4.54e-09 M	–	–	–	–	–
COCc1cc(-c2nc(-c3ccc(N)nc3)no2)ccc1-c1ccccc1Cl [Example 32, 5-{5-[2′-chloro-2-(methoxymethyl)biphenyl-4-yl]-1,2,4-oxadiazol-3-yl}pyridin-2-amine]	2.98 nM	–	1.39e-09 M	2.12e-08 M	9.4e-06 M	–	38.8 nM	–
COCc1cc(-c2nc(-c3ccc(N)nc3)no2)ccc1N1CCCC1C (stereo not shown) [Example 33, 5-{5-[3-(methoxymethyl)-4-(2-methylpyrrolidin-1-yl)phenyl]-1,2,4-oxadiazol-3-yl}pyridin-2-amine]	7.39 nM	–	5.37e-08 M	–	–	–	–	–
COCCNc1ncc(-c2noc(-c3ccc(-c4ccccc4C)c(COC)c3)n2)cc1Cl [Example 34, 3-chloro-N-(2-methoxyethyl)-5-{5-[2-(methoxymethyl)-2′-methylbiphenyl-4-yl]-1,2,4-oxadiazol-3-yl}pyridin-2-amine]	11.8 nM	–	5.26e-09 M	–	–	–	–	–
COCc1cc(-c2nc(-c3cnc(NCCC(=O)O)c(Cl)c3)no2)ccc1-c1ccccc1C [Example 37, N-(3-chloro-5-{5-[2-(methoxymethyl)-2′-methylbiphenyl-4-yl]-1,2,4-oxadiazol-3-yl}pyridin-2-yl)-beta-alanine, hydrochloride salt]	2.37 nM	2110 nM	1.07e-09 M	1.06e-08 M	2.86e-06 M	1.5e-05 M	19.8 nM	–
COCc1cc(-c2nc(-c3cnc(N)c(Cl)c3)no2)ccc1-c1ccccc1Cl [Example 47, 3-chloro-5-{5-[2′-chloro-2-(methoxymethyl)biphenyl-4-yl]-1,2,4-oxadiazol-3-yl}pyridin-2-amine]	–	–	6.02e-09 M	–	2e-05 M	–	26.8 nM	182 to 184 °C
COCc1cc(-c2nc(-c3cnc(N)c(C)c3)no2)ccc1-c1ccccc1Cl [Example 76, 5-{5-[2′-chloro-2-(methoxymethyl)biphenyl-4-yl]-1,2,4-oxadiazol-3-yl}-3-methylpyridin-2-amine]	–	–	–	2.16e-08 M	–	–	37.4 nM	143 to 145 °C
CCOc1cc(-c2nc(-c3cnc(N)c(C)c3)no2)ccc1-c1ccccc1C(F)(F)F [Example 77, 5-{5-[2-ethoxy-2′-(trifluoromethyl)biphenyl-4-yl]-1,2,4-oxadiazol-3-yl}-3-methylpyridin-2-amine]	–	–	–	1.49e-08 M	–	–	73.5 nM	163 to 165 °C
COCc1cc(-c2nc(-c3cnc(N)c(C)c3)no2)ccc1-c1ccccc1F [Example 79, 5-{5-[2′-fluoro-2-(methoxymethyl)biphenyl-4-yl]-1,2,4-oxadiazol-3-yl}-3-methylpyridin-2-amine]	–	–	–	2.15e-08 M	–	–	58.7 nM	162 to 164 °C
